Laboratory results taken from US11649238B2, “Substituted pyrazolo[1,5-a]pyrimidines as PI4K inhibitors” (GLAXOSMITHKLINE INTELLECTUAL PROPERTY DEVELOPMENT LIMITED, priority 2018, dated 2023).

What was measured:
[1] = test system: human rhinovirus Type A Strain 16 (HRVA16) in HeLa Ohio cells; test: Cytopathic Effect (CPE) Assay, ATP-depletion in infected HeLa Ohio cells; type: cell-based; conditions: Human rhinovirus sp., HRVA16, HeLa, 48 h, HRVA16 at MOI of 1, 33° C. for 2 days, CellTiter-Glo, read-out: mean pIC50 (converted)
Procedure: c) Cytopathic Effect (CPE) Assay Protocol
The in vitro inhibition of PI4 KB activity was determined by analysis of the inhibition of ATP-depletion in HeLa Ohio cells in response to infection with human rhinovirus Type A Strain 16 (HRVA16). ATP levels were determined using CellTiter-GLO reagent from Promega. Compounds that inhibit PI4 KB are also potent inhibitors of human rhinoviruses and are able to protect HeLa Ohio cells from CPE induced by viral infection and replication. Protected cells remain viable following viral infection and therefore have greater ATP levels.
Compounds were dissolved in 100% DMSO to a concentration of 3 mM and subsequent dilutions were prepared in 100% DMSO using a 1:3 serial step dilution. A 0.5 μL stamp from an 10-point titration was transferred to a white 96 well Greiner tissue culture flat bottom plate (655083). A 0.5 μL stamp of 100% DMSO was stamped into columns 11 and 12 of the plate, ensuring a final assay DMSO concentration of 0.33% across the plate and a compound top final assay concentration of 10 μM.
HeLa Ohio cells were cultured at 37° C., 5% CO2 in media (DMEM supplemented with 10% Australian origin foetal bovine serum and 2 mM glutamax). Cells were passaged when confluency reached >80%. For the assay, cells were grown to 80-90% confluency before detachment.
Cells were detached for the assay by washing with PBS and detached using 3 mL TrypLE Express for […] at 37° C. Detached cells were mixed with 7 mL of media and centrifuged at 300 g for 5 min. The cell pellet was resuspended in 50 mL media and counted on a Beckman Coulter ViCell. Cells were diluted to 6.6×10^4 cells/mL and some of the cell volume was removed into a new tube to be used as a column 12 control. HRVA16 stock was added to the remaining cell suspension at the appropriate dilution for the virus stock to achieve an MOI of 1.
150 μL of the cell+virus suspension was added per well to columns 1-11 using a Multidrop Combi. 150 μL of the separate cell suspension was added per well to columns 12 using a multichannel pipette. Assay plates were sealed and incubated at 33° C., 5% CO2 for 2 days. After 2 days, assay plates were removed from the incubator and allowed to equilibrate to room temperature. 60 μL of CellTiter-Glo reagent was added to all wells using a Thermo Scientific Multidrop Combi. Plates were incubated at room temperature for 20 min before reading on an a Perkin Elmer Envision (Settings: Gripper height 2.5, Fixed measurement height (mm) 6.5, Distance between plate and detector 0, Measurement time (s) 0.1, Glow (ct2) correction factor (0%)).
The inhibitory effect of the compounds on the PI4 KB activity was evaluated by the IC50 of the response relative to the high (no virus, column 12) and low (virus+no inhibitor, column 11) controls by fitting to a four parameter dose response equation.

[2] = target: T1, human PI4KIII-beta 13-828 (D316-330) (Homo sapiens, UniProt Q9UBF8); test: PI4 KB Activity Assay (ADP-GLO Kinase assay); type: biochemical; conditions: 1 mM ATP, 60 μM phosphatidylinositol, 3 hours at room temperature; read-out: mean pIC50 (converted)
T1 construct: human PI4KIII-beta 13-828 (D316-330)
T1 sequence (Q9UBF8 1-801 isoform Q9UBF8-2): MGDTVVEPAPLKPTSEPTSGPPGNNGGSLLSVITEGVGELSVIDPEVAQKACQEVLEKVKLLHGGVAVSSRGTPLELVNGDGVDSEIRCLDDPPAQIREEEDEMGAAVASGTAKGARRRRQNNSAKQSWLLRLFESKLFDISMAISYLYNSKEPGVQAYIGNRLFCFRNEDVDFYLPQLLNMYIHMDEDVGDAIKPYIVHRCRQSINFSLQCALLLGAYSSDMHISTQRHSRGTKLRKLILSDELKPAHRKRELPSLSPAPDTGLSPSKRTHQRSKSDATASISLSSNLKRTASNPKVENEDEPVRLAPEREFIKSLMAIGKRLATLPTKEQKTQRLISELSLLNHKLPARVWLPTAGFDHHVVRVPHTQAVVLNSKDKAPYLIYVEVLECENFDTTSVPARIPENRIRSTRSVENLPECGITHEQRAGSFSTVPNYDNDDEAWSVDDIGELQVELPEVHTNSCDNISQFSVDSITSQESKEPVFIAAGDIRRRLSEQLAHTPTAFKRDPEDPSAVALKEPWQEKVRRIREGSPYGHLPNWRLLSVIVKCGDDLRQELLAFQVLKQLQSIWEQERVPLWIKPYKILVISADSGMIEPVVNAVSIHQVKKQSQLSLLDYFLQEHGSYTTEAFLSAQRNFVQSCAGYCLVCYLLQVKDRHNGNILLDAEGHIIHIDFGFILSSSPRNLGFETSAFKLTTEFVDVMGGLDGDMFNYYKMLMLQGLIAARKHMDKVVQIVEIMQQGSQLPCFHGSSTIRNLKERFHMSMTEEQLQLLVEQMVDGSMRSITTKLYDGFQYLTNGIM
Procedure: The in vitro inhibition of human PI4KIII-beta 13-828 (D316-330) activity was determined by using the ADP-GLO Kinase assay kit from Promega. Inhibitors were dissolved in 100% DMSO at a concentration of 1 mM. Dilutions were prepared in 100% DMSO using a 1 in 3 serial step dilution. A 60 nL stamp from an 11-point titration was transferred to a white low volume 384 well Greiner assay plate ensuring a final DMSO concentration of 1% across the plate and a top final concentration of inhibitor of 10 μM. The PI4KIII-beta assay contained 25 mM Hepes pH 7.5 (NaOH), 10 mM MgCl2, 0.5 mM EGTA, 0.1% Triton X-100, 2 mM TCEP, and 0.1 mg/ml BSA, 1 mM ATP, 60 μM phosphatidylinositol, and 1.5 nM human PI4K-beta 13-828 (D316-330) in a total volume of 6 μL. The assay was initiated with the addition of enzyme, covered, and incubated at room temperature for 3 hours. The assays were stopped with the addition of 6 μl ADP-GLO Reagent containing 0.1% CHAPS to deplete the unconsumed ATP. The plates were incubated at room temperature for 60 min and then 12 μl of the Kinase Detection Reagent containing 0.1% CHAPS was added to convert ADP to ATP and introduce luciferase and luciferin. After 40 min incubation at room temperature the luminescent signal was read on a BMG Labtech PHERAstar FS with the following settings; Gain 3600, Focal height 13.7 mm, measurement interval time 1 s, Settling time 0.2 s. The inhibitory effect of the PI4K-beta activity of the compounds was evaluated by the IC50 of the response relative to the high, no compound, and low, no enzyme, controls by fitting to the four parameter dose response question.

Row | IC50 [1] [nM] | IC50 [2] [nM] | Compound
1 | ≤ 25.1 | – | COc1ccc(-c2c(C)nn3c(NCc4cccc(-c5nccn5C)c4)cc(C(C)(C)O)nc23)cc1C(=O)N1CC[C@H](O)C1 [Compound 8, (S)-(5-(5-(2-Hydroxypropan-2-yl)-2-methyl-7-((3-(1-methyl-1H-imidazol-2-yl)benzyl)amino)pyrazolo[1,5-a]pyrimidin-3-yl)-2-methoxyphenyl)(3-hydroxypyrrolidin-1-yl)methanone]
2 | ≤ 25.1 | – | Cc1ccc(-c2c(C)nn3c(NCc4cccc(-c5nccn5C)c4)cc(C(C)O)nc23)cc1C(=O)N(C)CCCO (stereo not shown) [Compound 13]
3 | ≤ 25.1 | – | COc1ccc(-c2c(C)nn3c(NCc4cccc(-c5nccn5C)c4)cc(C(C)(C)O)nc23)cc1C(=O)N1CCOC[C@@H]1C [Compound 30]
4 | – | ≤ 3.98 | Cc1ccc(-c2c(C)nn3c(NCc4cccc(-c5nccn5C)c4)cc(C(C)(C)O)nc23)cc1C(=O)N1CCC(O)C1 (stereo not shown) [Compound 41]
5 | – | ≤ 3.98 | COc1ccc(-c2c(C)nn3c(NCc4cccc(-c5nccn5C)c4)cc(C(C)(C)O)nc23)cc1C(=O)N(C)C(C)CO (stereo not shown) [Compound 42]
6 | – | ≤ 3.98 | Cc1ccc(-c2c(C)nn3c(NCc4cccc(-c5nccn5C)c4)cc(C(C)(C)O)nc23)cc1C(=O)N(C)CCO [Compound 43, N-(2-hydroxyethyl)-5-(5-(2-hydroxypropan-2-yl)-2-methyl-7-((3-(1-methyl-1H-imidazol-2-yl)benzyl)amino)pyrazolo[1,5-a]pyrimidin-3-yl)-N,2-dimethylbenzamide]
7 | – | ≤ 3.98 | COc1ccc(-c2c(C)nn3c(NCc4cccc(-c5nccn5C)c4)cc(C(C)(C)O)nc23)cc1C(=O)N1CCCC1CO (stereo not shown) [Compound 44]
8 | – | ≤ 3.98 | Cc1ccc(-c2c(C)nn3c(NCc4cccc(-c5nccn5C)c4)cc(C(C)(C)O)nc23)cc1C(=O)N(C)C1CCOCC1 [Compound 45]
9 | – | ≤ 3.98 | COc1ccc(-c2c(C)nn3c(NCc4cccc(-n5cccn5)c4)cc(C(C)(C)O)nc23)cc1C(=O)N(C)CCO [Compound 46]
10 | – | ≤ 3.98 | Cc1ccc(-c2c(C)nn3c(NCc4cccc(-n5cccn5)c4)cc(C(C)(C)O)nc23)cc1C(=O)N(C)CCO [Compound 47]
11 | – | ≤ 3.98 | Cc1nn2c(NCc3cccc(-n4cccn4)c3)cc(C(C)(C)O)nc2c1-c1ccc(Cl)c(C(=O)N(C)CCO)c1 [Compound 48]
12 | – | ≤ 3.98 | COc1ccc(-c2c(C)nn3c(NCc4cccc(-n5cccn5)c4)cc(C(C)(C)O)nc23)cc1C(=O)N1CCC[C@@H]1CO [Compound 49]
13 | – | ≤ 3.98 | Cc1ccc(-c2c(C)nn3c(NCc4cccc(-n5cccn5)c4)cc(C(C)(C)O)nc23)cc1C(=O)N1CC[C@H](O)C1 [Compound 50]
14 | – | ≤ 3.98 | COc1ccc(-c2c(C)nn3c(NCc4cccc(-n5cccn5)c4)cc(C(C)(C)O)nc23)cc1C(=O)N1CCC(C)(O)C1 (stereo not shown) [Compound 51]
15 | – | ≤ 3.98 | COc1ccc(-c2c(C)nn3c(NCc4cccc(-n5cccn5)c4)cc(C(C)(C)O)nc23)cc1C(=O)N1CC[C@H](O)C1 [Compound 52]
16 | – | ≤ 3.98 | COc1ccc(-c2c(C)nn3c(NCc4cccc(-c5nccn5C)c4)cc(C(C)CO)nc23)cc1S(=O)(=O)CCO (stereo not shown) [Compound 53, 2-(3-(3-((2-Hydroxyethyl)sulfonyl)-4-methoxyphenyl)-2-methyl-7-((3-(1-methyl-1H-imidazol-2-yl)benzyl)amino)pyrazolo[1,5-a]pyrimidin-5-yl)propan-1-ol]
17 | – | ≤ 3.98 | Cc1ccc(-c2c(C)nn3c(NCc4cccc(-c5nccn5C)c4)cc(C(C)(C)CO)nc23)cc1C(=O)N(C)CCCO [Compound 55, 5-(5-(1-Hydroxy-2-methylpropan-2-yl)-2-methyl-7-((3-(1-methyl-1H-imidazol-2-yl)benzyl)amino)pyrazolo[1,5-a]pyrimidin-3-yl)-N-(3-hydroxypropyl)-N,2-dimethylbenzamide]
18 | – | ≤ 3.98 | COc1ccc(-c2c(C)nn3c(NCc4cccc(-c5nccn5C)c4)cc(C(C)(C)CO)nc23)cc1S(=O)(=O)CCO [Compound 56, 2-(3-(3-((2-Hydroxyethyl)sulfonyl)-4-methoxyphenyl)-2-methyl-7-((3-(1-methyl-1H-imidazol-2-yl)benzyl)amino)pyrazolo[1,5-a]pyrimidin-5-yl)-2-methylpropan-1-ol]
19 | – | ≤ 3.98 | Cc1ccc(-c2c(C)nn3c(NCc4cccc(-c5nccn5C)c4)cc(C(C)(C)O)nc23)cc1C(=O)N(C)C1CCOC1 (stereo not shown) [Compound 59, 5-(5-(2-Hydroxypropan-2-yl)-2-methyl-7-((3-(1-methyl-1H-imidazol-2-yl)benzyl)amino)pyrazolo[1,5-a]pyrimidin-3-yl)-N,2-dimethyl-N-(tetrahydrofuran-3-yl)benzamide]
20 | – | ≤ 3.98 | Cc1ccc(-c2c(C)nn3c(NCc4cccc(-c5nccn5C)c4)cc(C(C)(C)O)nc23)cc1C(=O)N(C)CC(C)O (stereo not shown) [Compound 61]
21 | – | ≤ 3.98 | COc1ccc(-c2c(C)nn3c(NCc4cccc(-c5nccn5C)c4)cc(C4CCOCC4)nc23)cc1S(=O)(=O)CCO [Compound 64, 2-((2-Methoxy-5-(2-methyl-7-((3-(1-methyl-1H-imidazol-2-yl)benzyl)amino)-5-(tetrahydro-2H-pyran-4-yl)pyrazolo[1,5-a]pyrimidin-3-yl)phenyl)sulfonyl)ethan-1-ol]
22 | – | ≤ 3.98 | CCC(CO)c1cc(NCc2cccc(-c3nccn3C)c2)n2nc(C)c(-c3ccc(C)c(C(=O)N(C)CCCO)c3)c2n1 (stereo not shown) [Compound 65, 5-(5-(1-Hydroxybutan-2-yl)-2-methyl-7-((3-(1-methyl-1H-imidazol-2-yl)benzyl)amino)pyrazolo[1,5-a]pyrimidin-3-yl)-N-(3-hydroxypropyl)-N,2-dimethylbenzamide]
23 | – | ≤ 3.98 | CCC(O)(CC)c1cc(NCc2cccc(-c3nccn3C)c2)n2nc(C)c(-c3ccc(C)c(C(=O)N(C)CCCO)c3)c2n1 [Compound 68, 5-(5-(3-Hydroxypentan-3-yl)-2-methyl-7-((3-(1-methyl-1H-imidazol-2-yl)benzyl)amino)pyrazolo[1,5-a]pyrimidin3-yl)-N-(3-hydroxypropyl)-N,2-dimethylbenzamide]
24 | – | ≤ 3.98 | COc1ccc(-c2c(C)nn3c(NCc4cccc(-c5nccn5C)c4)cc(C(C)(C)O)nc23)cc1C(=O)N(C)CC(C)O (stereo not shown) [Compound 82, 5-(5-(2-Hydroxypropan-2-yl)-2-methyl-7-((3-(1-methyl-1H-imidazol-2-yl)benzyl)amino)pyrazolo[1,5-a]pyrimidin-3-yl)-N-(2-hydroxypropyl)-2-methoxy-N-methylbenzamide]
25 | – | ≤ 3.98 | CCC(CO)c1cc(NCc2cccc(-c3nccn3C)c2)n2nc(C)c(-c3ccc(OC)c(S(=O)(=O)CCO)c3)c2n1 (stereo not shown) [Compound 86, 2-(3-(3-((2-Hydroxyethyl)sulfonyl)-4-methoxyphenyl)-2-methyl-7-((3-(1-methyl-1H-imidazol-2-yl)benzyl)amino)pyrazolo[1,5-a]pyrimidin-5-yl)butan-1-ol]
